Experimental findings from patent US20180244611A1, “Modulators of the Cystic Fibrosis Transmembrane Conductance Regulator Protein and Methods of Use” (AbbVie S.à.r.l., priority 2017, published 2018) are described below.

In test [1] the target is T1, F508delCFTR (Homo sapiens, UniProt P13569, DEL508-508).
T1 construct: expressed in transfected cells; host or cells: CFBE41o- human lung-derived epithelial cells (CFBE41o-F508delCFTR-HRP), doxycycline-inducible
Kind of test: Cell Surface Expression-Horse Radish Peroxidase (CSE-HRP) assay, test compound without co-corrector.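 For Emax: percent of on-plate 2 µM positive control corrector response over DMSO.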 Format: cell-based. The note with it: for Emax: maximum at any tested concentration, normalized to positive control, without co-corrector; for EC50: test compound without co-corrector. Put shortly: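 Compound without co-corrector was tested at eight 3-fold concentrations, top 20 μM, for 18-24 h at 33° C on doxycycline-induced (0.5 μg/mL, 72 h) CFBE41o- F508delCFTR-HRP cells. After DPBS washes, luminol luminescence gave % activity relative to on-plate positive control minus DMSO; EC50 came from triplicate-plate sigmoidal fitting.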

Test [2] deals with T1, F508delCFTR. Kind of test: Cell Surface Expression-Horse Radish Peroxidase (CSE-HRP) assay, test compound with co-corrector.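 For Maximum % activity (with co-corrector): percent of 2 µM positive control corrector over DMSO; co-corrector is that same compound.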 The format is cell-based. As to conditions: with 2 μM co-corrector; for Maximum % activity (with co-corrector): maximum at any tested concentration, normalized to positive control. In outline:
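Surface-expression read-out: luminol luminescence from an HRP tag in the fourth exofacial loop of F508delCFTR, in doxycycline-induced (0.5 μg/mL, 72 h) CFBE41o- cells. Compound plus 2 μM co-corrector added for 18-24 h at 33° C., 8-point 3-fold series up to 20 μM. EC50 from a sigmoidal fit with variable Hill slope, normalised to positive control, triplicate plates.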

Molecules are shown by their SMILES.

T1 sequence (P13569 with tags, fused parts or gaps DEL508-508): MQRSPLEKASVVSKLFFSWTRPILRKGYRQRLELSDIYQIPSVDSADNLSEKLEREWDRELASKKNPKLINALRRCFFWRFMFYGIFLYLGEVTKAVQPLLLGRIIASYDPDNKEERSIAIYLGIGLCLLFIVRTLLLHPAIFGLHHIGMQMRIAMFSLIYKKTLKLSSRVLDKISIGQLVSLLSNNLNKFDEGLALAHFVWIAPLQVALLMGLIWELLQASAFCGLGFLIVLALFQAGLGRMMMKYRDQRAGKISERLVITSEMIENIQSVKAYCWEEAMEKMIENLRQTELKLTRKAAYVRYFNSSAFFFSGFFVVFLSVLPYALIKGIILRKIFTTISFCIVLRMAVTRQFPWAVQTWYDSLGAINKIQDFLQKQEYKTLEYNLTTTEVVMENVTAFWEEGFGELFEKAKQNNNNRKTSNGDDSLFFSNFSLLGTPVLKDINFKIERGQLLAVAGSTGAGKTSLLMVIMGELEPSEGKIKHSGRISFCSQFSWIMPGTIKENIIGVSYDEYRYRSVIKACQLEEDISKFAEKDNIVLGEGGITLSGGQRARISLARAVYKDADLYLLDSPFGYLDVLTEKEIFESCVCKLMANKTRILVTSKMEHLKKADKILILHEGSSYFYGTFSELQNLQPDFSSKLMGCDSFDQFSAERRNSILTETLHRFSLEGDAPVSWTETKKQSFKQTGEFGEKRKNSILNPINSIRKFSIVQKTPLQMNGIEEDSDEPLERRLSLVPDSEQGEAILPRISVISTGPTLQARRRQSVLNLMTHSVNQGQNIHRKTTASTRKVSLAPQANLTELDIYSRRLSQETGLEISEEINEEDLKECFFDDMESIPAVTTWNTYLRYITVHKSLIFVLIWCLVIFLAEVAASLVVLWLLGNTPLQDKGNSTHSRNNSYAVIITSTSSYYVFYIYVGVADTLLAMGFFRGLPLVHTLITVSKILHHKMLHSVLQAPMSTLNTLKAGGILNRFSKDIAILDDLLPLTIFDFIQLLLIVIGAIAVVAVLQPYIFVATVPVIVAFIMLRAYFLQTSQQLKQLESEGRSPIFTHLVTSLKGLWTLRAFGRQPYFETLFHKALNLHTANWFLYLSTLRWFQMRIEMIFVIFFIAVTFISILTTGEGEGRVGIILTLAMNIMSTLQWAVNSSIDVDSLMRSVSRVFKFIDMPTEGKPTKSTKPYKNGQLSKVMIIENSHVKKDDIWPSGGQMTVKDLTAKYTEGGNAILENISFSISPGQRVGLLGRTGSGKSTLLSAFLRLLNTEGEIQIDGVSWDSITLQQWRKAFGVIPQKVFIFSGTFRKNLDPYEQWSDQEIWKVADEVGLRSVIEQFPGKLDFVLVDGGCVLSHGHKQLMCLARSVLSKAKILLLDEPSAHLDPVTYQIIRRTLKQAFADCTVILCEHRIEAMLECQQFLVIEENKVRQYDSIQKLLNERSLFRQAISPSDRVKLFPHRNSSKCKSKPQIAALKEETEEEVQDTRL

Broadly, the Emax is the size of the effect at its maximum, as opposed to the concentration needed. The EC50 is the concentration giving half of the maximal effect. For the molecule `COc1cccc2c1CCC2C(=O)NS(=O)(=O)c1ccccc1[N+](=O)[O-]` (stereo not shown) [II-31], on F508delCFTR [1], the Emax was below 50% and the EC50 lay within 3 to 10 µM. In addition, at F508delCFTR [2], the “Maximum % activity (with co-corrector)” value is “++ (≥150 and <350)”; the EC50 is 3 to 10 µM.
At F508delCFTR [1], `CCC1(C(=O)NS(=O)(=O)c2ccccc2C)CCc2c(Cl)cccc21` (stereo not shown) [II-32] gave an Emax below 50% and an EC50 below 3 µM. Further, on F508delCFTR [2], the “Maximum % activity (with co-corrector)” value was “++ (≥150 and <350)”; the EC50 was below 3 µM.
On F508delCFTR [1], `Cc1ccccc1S(=O)(=O)NC(=O)C1CCc2c(Br)cccc21` (stereo not shown) [II-33] gave an Emax of 50 to 150% and an EC50 of 3 to 10 µM. On F508delCFTR [2], the “Maximum % activity (with co-corrector)” value is recorded as “+++ (≥350)” and the EC50 lay within 3 to 10 µM.
At F508delCFTR [1], `Cc1ccccc1S(=O)(=O)NC(=O)C1CCc2c(C3=CCOCC3)cccc21` (stereo not shown) [II-34] had an Emax below 50% and an EC50 of 3 to 10 µM. For the same molecule, at F508delCFTR [2], the “Maximum % activity (with co-corrector)” value was “++ (≥150 and <350)”; the EC50 lay within 3 to 10 µM.
At F508delCFTR [1], `Cc1ccccc1S(=O)(=O)NC(=O)C1CCc2c(C3CCC3)cccc21` (stereo not shown) [II-35] returned an Emax of 50 to 150% and an EC50 of 3 to 10 µM. In addition, at F508delCFTR [2], the “Maximum % activity (with co-corrector)” value is “++ (≥150 and <350)”; the EC50 was in the range of 3 to 10 µM.
As for `COc1cccc2c1CCC2C(=O)NS(=O)(=O)c1ccccc1C(F)(F)F` (stereo not shown) [II-37], at F508delCFTR [1], the Emax is below 50% and the EC50 is 3 to 10 µM. On F508delCFTR [2], the “Maximum % activity (with co-corrector)” value was “++ (≥150 and <350)”; the EC50 is 3 to 10 µM.
On F508delCFTR [1], `COc1cccc2c1CCC2C(=O)NS(=O)(=O)c1ccccc1F` (stereo not shown) [II-38] registered an Emax below 50% and an EC50 of at least 10 µM. In addition, at F508delCFTR [2], the “Maximum % activity (with co-corrector)” value is “++ (≥150 and <350)”; the concentration for a half-maximal effect (EC50) lay in the range of 3 to 10 µM.
For `COc1cccc2c1CCC2C(=O)NS(=O)(=O)c1ccccc1Br` (stereo not shown) [II-39], at F508delCFTR [1], the Emax is below 50% and the EC50 lay within 3 to 10 µM. Moreover, on F508delCFTR [2], the “Maximum % activity (with co-corrector)” value was “++ (≥150 and <350)”; the EC50 was in the range of 3 to 10 µM.
Consider `Cc1ccccc1S(=O)(=O)NC(=O)C1CCc2c(OC(C)C)cccc21` (stereo not shown) [II-40], for which, on F508delCFTR [1], the Emax fell in the range of 50 to 150% and the EC50 fell in the range of 3 to 10 µM. Moreover, at F508delCFTR [2], the “Maximum % activity (with co-corrector)” value was “++ (≥150 and <350)”; the 50% effective concentration (EC50) lay in the range of 3 to 10 µM.
Take `COc1ccc(Br)c2c1CCC2C(=O)NS(=O)(=O)c1ccccc1C` (stereo not shown) [II-41]: on F508delCFTR [1], the Emax was in the range of 50 to 150% and the EC50 was in the range of 3 to 10 µM. Besides, at F508delCFTR [2], the “Maximum % activity (with co-corrector)” value is “+++ (≥350)” and the EC50 lay in the range of 3 to 10 µM.
For the molecule `COc1cc(-c2cccc3c2CCC3C(=O)NS(=O)(=O)c2ccccc2C)ccn1` (stereo not shown) [II-42], at F508delCFTR [1], the Emax is 50 to 150% and the EC50 lay in the range of 3 to 10 µM. Further, at F508delCFTR [2], the “Maximum % activity (with co-corrector)” value was “++ (≥150 and <350)”; the concentration for a half-maximal effect (EC50) fell in the range of 3 to 10 µM.
As for `COc1cccc2c1CCCC2C(=O)NS(=O)(=O)c1cccc2cccnc12` (stereo not shown) [II-43], at F508delCFTR [1], the Emax fell in the range of 50 to 150% and the EC50 lay in the range of 3 to 10 µM. Also, on F508delCFTR [2], the “Maximum % activity (with co-corrector)” value is “++ (≥150 and <350)”; the EC50 was in the range of 3 to 10 µM.
As for `COc1ccc2c(c1)CC[C@@]2(C)C(=O)NS(=O)(=O)c1cccc2ccccc12` [II-44], on F508delCFTR [1], the Emax fell in the range of 50 to 150% and the EC50 was in the range of 3 to 10 µM. Besides, on F508delCFTR [2], the “Maximum % activity (with co-corrector)” value is given as “+++ (≥350)” and the EC50 lay in the range of 3 to 10 µM.
Turning to `COc1ccc2c(c1)CC[C@]2(C)C(=O)NS(=O)(=O)c1cccc2ccccc12` [II-45], at F508delCFTR [1], the Emax was at least 150% and the EC50 fell in the range of 3 to 10 µM. Moreover, at F508delCFTR [2], the “Maximum % activity (with co-corrector)” value is listed as “+++ (≥350)” and the EC50 was 3 to 10 µM.
Regarding `COc1cccc2c1CC[C@]2(C)C(=O)NS(=O)(=O)c1cccc2ccccc12` [II-46], at F508delCFTR [1], the Emax was 50 to 150% and the EC50 was 3 to 10 µM. At F508delCFTR [2], the “Maximum % activity (with co-corrector)” value is listed as “+++ (≥350)” and the EC50 is 3 to 10 µM.
At F508delCFTR [1], `COc1cccc2c1CC(C(=O)NS(=O)(=O)c1cccc3ccccc13)C2` (stereo not shown) [II-48] had an Emax of 50 to 150% and an EC50 of 3 to 10 µM. For the same molecule, at F508delCFTR [2], the “Maximum % activity (with co-corrector)” value is “+++ (≥350)” and the EC50 was 3 to 10 µM.
`CC1(C(=O)NS(=O)(=O)c2cccc3ccccc23)CCc2ccc(OC(F)(F)F)cc21` (stereo not shown) [II-49]: on F508delCFTR [1], the Emax was at least 150% and the EC50 lay within 3 to 10 µM. In addition, at F508delCFTR [2], the “Maximum % activity (with co-corrector)” value is on record as “+++ (≥350)” and the EC50 is below 3 µM.
On F508delCFTR [1], `O=C(NS(=O)(=O)c1cccc2ccccc12)C1CCCc2c(O)ccc(Br)c21` (stereo not shown) [II-50] had an Emax below 50% and an EC50 of 3 to 10 µM. Besides, at F508delCFTR [2], the “Maximum % activity (with co-corrector)” value is “++ (≥150 and <350)”; the EC50 lay within 3 to 10 µM.
As for `COc1ccc2c(c1OC)CCCC2C(=O)NS(=O)(=O)c1cccc2ccccc12` (stereo not shown) [II-51], at F508delCFTR [1], the Emax was in the range of 50 to 150% and the EC50 was 3 to 10 µM. At F508delCFTR [2], the “Maximum % activity (with co-corrector)” value is given as “+++ (≥350)” and the EC50 was in the range of 3 to 10 µM.
`O=C(NS(=O)(=O)c1cccc2ccccc12)C1CCCc2c1ccc1c2OCCO1` (stereo not shown) [II-52]: at F508delCFTR [1], the Emax fell in the range of 50 to 150% and the EC50 lay within 3 to 10 µM. Moreover, at F508delCFTR [2], the “Maximum % activity (with co-corrector)” value is listed as “+++ (≥350)” and the EC50 lay in the range of 3 to 10 µM.
As to `COc1cc2c(cc1OC)C(C(=O)NS(=O)(=O)c1cccc3ccccc13)CCC2` (stereo not shown) [II-53], on F508delCFTR [1], the Emax was 50 to 150% and the EC50 lay in the range of 3 to 10 µM. In addition, on F508delCFTR [2], the “Maximum % activity (with co-corrector)” value is listed as “+++ (≥350)” and the EC50 lay in the range of 3 to 10 µM.
Take `CCC1(C(=O)NS(=O)(=O)c2ccccc2Cl)CCc2c(Cl)cccc21` (stereo not shown) [II-54]: at F508delCFTR [1], the maximum response (Emax) was below 50% and the EC50 was below 3 µM. For the same molecule, on F508delCFTR [2], the “Maximum % activity (with co-corrector)” value is “++ (≥150 and <350)”; the EC50 is below 3 µM.
On F508delCFTR [1], `CCC1(C(=O)NS(=O)(=O)c2ccccc2OC)CCc2c(Cl)cccc21` (stereo not shown) [II-55] had an Emax below 50% and an EC50 of at least 10 µM. On F508delCFTR [2], the “Maximum % activity (with co-corrector)” value is “+ (<150)” and the EC50 was at least 10 µM.
On F508delCFTR [1], `CCC1(C(=O)NS(=O)(=O)c2cc(C)ccc2C(C)C)CCc2c(Cl)cccc21` (stereo not shown) [II-56] returned an Emax below 50% and an EC50 below 3 µM. Also, at F508delCFTR [2], the “Maximum % activity (with co-corrector)” value is “++ (≥150 and <350)”; the EC50 was below 3 µM.
Regarding `CCC1(C(=O)NS(=O)(=O)c2cccc(Cl)c2COC)CCc2c(Cl)cccc21` (stereo not shown) [II-57], at F508delCFTR [1], the Emax is below 50% and the EC50 was below 3 µM. Further, on F508delCFTR [2], the “Maximum % activity (with co-corrector)” value was “++ (≥150 and <350)”; the EC50 was below 3 µM.
On F508delCFTR [1], `CCC1(C(=O)NS(=O)(=O)c2ccccc2F)CCc2c(Cl)cccc21` (stereo not shown) [II-58] came in with an Emax below 50% and an EC50 below 3 µM. Further, on F508delCFTR [2], the “Maximum % activity (with co-corrector)” value was “++ (≥150 and <350)”; the EC50 was below 3 µM.
Consider `CCC1(C(=O)NS(=O)(=O)c2ccccc2Oc2ccccc2)CCc2c(Cl)cccc21` (stereo not shown) [II-59], for which, on F508delCFTR [1], the Emax is below 50% and the EC50 was below 3 µM. Also, on F508delCFTR [2], the “Maximum % activity (with co-corrector)” value was “++ (≥150 and <350)”; the EC50 was below 3 µM.
On F508delCFTR [1], `CCC1(C(=O)NS(=O)(=O)c2ccccc2OC(F)(F)F)CCc2c(Cl)cccc21` (stereo not shown) [II-60] showed an Emax below 50% and a half-maximal effective concentration (EC50) of at least 10 µM. On F508delCFTR [2], the “Maximum % activity (with co-corrector)” value was “+ (<150)” and the EC50 is at least 10 µM.
